# Molecular target: T1, His6-NALP1 wild-type (Homo sapiens, UniProt Q9C000)
# T1 construct: made in house; host or cells: COS-7 cells, transient transfection, Ni-NTA purification
# T1 sequence (Q9C000 1-1473): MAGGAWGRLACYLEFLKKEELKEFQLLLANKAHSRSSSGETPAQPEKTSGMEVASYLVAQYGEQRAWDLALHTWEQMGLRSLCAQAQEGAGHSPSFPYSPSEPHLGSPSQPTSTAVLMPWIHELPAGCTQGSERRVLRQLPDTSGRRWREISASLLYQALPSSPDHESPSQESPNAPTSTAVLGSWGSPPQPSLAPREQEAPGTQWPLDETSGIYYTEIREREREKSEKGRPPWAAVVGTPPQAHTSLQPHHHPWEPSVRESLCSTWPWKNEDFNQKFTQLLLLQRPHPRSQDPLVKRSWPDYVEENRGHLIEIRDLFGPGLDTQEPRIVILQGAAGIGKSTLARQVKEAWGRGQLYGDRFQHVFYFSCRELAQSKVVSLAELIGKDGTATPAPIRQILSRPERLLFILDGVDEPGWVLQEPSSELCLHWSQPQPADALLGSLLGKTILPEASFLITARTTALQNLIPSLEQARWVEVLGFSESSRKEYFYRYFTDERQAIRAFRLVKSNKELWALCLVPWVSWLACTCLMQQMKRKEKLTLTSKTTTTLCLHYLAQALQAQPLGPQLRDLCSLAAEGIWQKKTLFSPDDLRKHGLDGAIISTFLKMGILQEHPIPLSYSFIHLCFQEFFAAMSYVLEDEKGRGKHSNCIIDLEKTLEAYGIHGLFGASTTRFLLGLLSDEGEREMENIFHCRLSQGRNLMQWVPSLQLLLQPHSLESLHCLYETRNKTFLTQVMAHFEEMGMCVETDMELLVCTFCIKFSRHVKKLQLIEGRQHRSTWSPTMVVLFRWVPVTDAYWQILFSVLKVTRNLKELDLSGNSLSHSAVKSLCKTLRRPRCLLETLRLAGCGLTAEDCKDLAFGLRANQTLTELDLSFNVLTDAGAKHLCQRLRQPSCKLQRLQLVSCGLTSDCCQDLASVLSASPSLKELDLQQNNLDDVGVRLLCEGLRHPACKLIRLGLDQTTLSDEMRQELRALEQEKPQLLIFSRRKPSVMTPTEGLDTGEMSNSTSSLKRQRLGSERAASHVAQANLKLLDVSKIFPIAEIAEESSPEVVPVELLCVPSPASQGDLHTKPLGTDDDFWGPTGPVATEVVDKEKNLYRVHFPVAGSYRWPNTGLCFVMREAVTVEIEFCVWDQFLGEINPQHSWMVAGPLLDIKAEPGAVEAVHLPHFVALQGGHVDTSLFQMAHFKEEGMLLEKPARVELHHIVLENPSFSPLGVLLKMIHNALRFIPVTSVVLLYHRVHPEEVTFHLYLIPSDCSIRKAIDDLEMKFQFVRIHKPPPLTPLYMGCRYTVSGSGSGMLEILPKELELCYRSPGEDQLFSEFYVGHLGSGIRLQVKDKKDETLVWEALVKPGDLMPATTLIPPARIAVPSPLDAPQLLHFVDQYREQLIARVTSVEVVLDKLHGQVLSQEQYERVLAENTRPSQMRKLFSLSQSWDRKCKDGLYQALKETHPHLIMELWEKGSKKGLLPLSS
# Assay: Ni flashplate dATPα35S binding assay, wild-type His6-NALP1
# Conditions: 8 nM dATPα35S displaced by non-radiolabeled dATP
# Protocol: Production of purified NALP-Flashplate binding assay. NALP1 protein for in vitro binding assays was purified from transiently transfected cells. COS-7 cells were plated in DMEM, 10% fetal calf serum with amino acid supplements and antibiotics and allowed to grow to approximately 50% confluency. Large-scale preparations were performed in Cell Factories (NUNC) with approximately 600 μg plasmid DNA. Polyfect transfection reagent (Qiagen) was used as described by the manufacturer. After 24 hours, cells were collected by trypsinization, washed with fresh medium and then with PBS. Cells were lysed by resuspension in 10× cell volume of lysis buffer (140 mM NaCl, 0.1% Triton-X100, 0.1 mM DTT, 20 mM HEPES at pH 7.4 and protease inhibitor cocktail (Roche Diagnostics BmbH)). Lysates were centrifuged at approximately 7400×g for 30 minutes and supernatants were supplemented with glycerol to a final concentration of 10% and stored at −70° C. until purification. Protein concentrations were measured and samples normalized. Extracts were mixed with 1 ml Ni-NTA agarose equilibrated with the same buffer for 1 hour at 4° C. in the tube. Disposable columns were filled with the resin and flow-through collected. […] Reactions were stopped by aspirating solutions and washed once with Buffer B. Plates were counted in a Top Count scintillation counter (Packard).
compound,measurement,value
Nc1ncnc2c1ncn2[C@H]1C[C@H](O)[C@@H](COP(=O)(O)OP(=O)(O)OP(=O)(O)O)O1 [dATP],specific binding of dATP to wild-type NALP1,specific binding

# From US20040248775A1, “Methods for screening inhibitors of apoptosis” (Wyeth, priority 2003, published 2004)
